According to patent US20190369111A1, “MOLECULAR KINETICS EVALUATION METHOD AND SCREENING METHOD” (Tokyo University of Science Foundation, priority 2016, published 2019):

Target: T1, SOS1 protein (Homo sapiens, UniProt Q07889)
T1 construct: endogenous in cells; host or cells: HeLa cells
T1 sequence (Q07889 1-1333): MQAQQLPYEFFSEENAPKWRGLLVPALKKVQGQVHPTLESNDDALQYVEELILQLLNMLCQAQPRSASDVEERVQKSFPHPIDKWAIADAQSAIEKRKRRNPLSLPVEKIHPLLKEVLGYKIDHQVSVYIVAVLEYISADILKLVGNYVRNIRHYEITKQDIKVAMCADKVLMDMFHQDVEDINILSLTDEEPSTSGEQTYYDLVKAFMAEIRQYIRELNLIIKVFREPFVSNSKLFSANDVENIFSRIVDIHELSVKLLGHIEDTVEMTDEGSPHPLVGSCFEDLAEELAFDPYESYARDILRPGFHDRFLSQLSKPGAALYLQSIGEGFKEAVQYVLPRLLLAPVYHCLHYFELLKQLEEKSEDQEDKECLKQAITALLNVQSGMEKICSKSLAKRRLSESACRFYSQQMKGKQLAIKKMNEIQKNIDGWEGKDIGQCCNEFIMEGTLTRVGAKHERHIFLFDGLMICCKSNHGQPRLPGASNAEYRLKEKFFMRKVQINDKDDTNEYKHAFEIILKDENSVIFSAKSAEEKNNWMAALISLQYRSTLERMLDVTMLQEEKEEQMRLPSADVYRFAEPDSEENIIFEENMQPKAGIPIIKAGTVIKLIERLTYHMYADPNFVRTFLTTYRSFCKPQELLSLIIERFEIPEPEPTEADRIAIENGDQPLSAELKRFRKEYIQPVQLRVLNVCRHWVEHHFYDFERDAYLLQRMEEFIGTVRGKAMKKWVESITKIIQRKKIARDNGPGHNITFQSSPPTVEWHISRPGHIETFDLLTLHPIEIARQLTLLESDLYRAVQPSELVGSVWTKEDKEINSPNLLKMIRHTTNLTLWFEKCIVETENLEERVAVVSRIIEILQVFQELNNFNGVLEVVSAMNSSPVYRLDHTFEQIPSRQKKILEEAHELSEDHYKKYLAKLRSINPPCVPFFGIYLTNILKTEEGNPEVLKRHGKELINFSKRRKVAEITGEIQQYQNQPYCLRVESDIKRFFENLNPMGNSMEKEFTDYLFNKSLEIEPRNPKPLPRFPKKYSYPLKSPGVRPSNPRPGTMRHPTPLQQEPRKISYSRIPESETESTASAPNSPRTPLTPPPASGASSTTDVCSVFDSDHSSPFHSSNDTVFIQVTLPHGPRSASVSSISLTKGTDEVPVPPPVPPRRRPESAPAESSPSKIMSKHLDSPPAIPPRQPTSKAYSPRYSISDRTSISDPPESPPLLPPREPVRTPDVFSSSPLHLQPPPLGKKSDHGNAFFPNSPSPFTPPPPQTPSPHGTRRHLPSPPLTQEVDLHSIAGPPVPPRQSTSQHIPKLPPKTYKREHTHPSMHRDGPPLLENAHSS
Assay: Amount of SOS1 protein in HeLa cells, Western blot analysis
Assay type: cell-based
Conditions: 48 hours after addition
Experimental: HeLa cells were seeded in a 24-well plate at a cell density of 8×10^4 cells/well, and then cultured under conditions of 37° C. and 5 vol % CO2 for 16 hours.
After 16 hours from cell seeding, TUS-007 was added to HeLa cells as follows. As a medium, a serum-free medium (37° C.) in which 1 mass % L-glutamine solution (Sigma-Aldrich) was added to D-MEM (high D-glucose, phenol red, sodium pyruvate (Wako Pure Chemical Industries, Ltd.)) was used. It is noted that the L-glutamine solution was added immediately before use. A DMSO solution containing TUS-007 was mixed with the medium so that the concentration of DMSO was 1 vol %, and added to each well at 500 μL/well, and cultured under conditions of 37° C. and 5 vol % CO2. As a control, DMSO was used.
The medium was removed 48 hours after addition of TUS-007, and then PBS was added to wash the cells. […]
After electrophoresis, proteins were transferred to a PVDF membrane (Immobion™-P, Millipore) under conditions of 100 V and 2 hours using a tank-type blotting device and a transfer buffer (25 mM Tris-HCl, 195 mM glycine, 0.01% SDS, 15% methanol). […] Subsequently, the membrane was treated with a chemiluminescence reagent Immobilon™ Western (Millipore), and then chemiluminescence was detected using a lumino image analyzer LAS-3000 (FUJIFILM Corporation). […]

## CC[C@@H](C)[C@H](NC(=O)CCCCCCNC(=O)[C@H](CC(C)C)NC(=O)CNC(=O)c1cc(Cl)ccc1Cl)C(=O)Nc1ccc2[nH]c(Cc3c[nH]c4ccccc34)nc2c1 [TUS-007]
  amount of SOS1 protein: not reduced
